Assay results published in patent US11793827B2, “Adenosine derivative and pharmaceutical composition comprising the same” (Brii Biosciences, Inc., priority 2021, dated 2023).

Columns and labels:
[1] = Liver S9 stability (human liver S9); format: in vitro ADME; conditions: for half-life at 1 µM: human liver S9, 37° C.; for Formation of EFdA at 30 min: human liver S9, 30 min
Procedure: Add 600 μL/well stop solution (cold in 4° C., including 100 ng/mL Tolbutamide/100 ng/mL Labetalol) to terminate the TO plate, then put it on ice. Dispense 840 μL/well S9 solution to 96-well plate as reservoir according to plate map. Then add 100 μL/well to every plate by Apricot. Incubate S9 solution and compound at 37° C. for about 10 min except NCF60 and TO. After adding S9 solution and 98μ LPB buffer to NCF60, incubate at 37° C. without pre-warming, start timer 1. After 60 min, add 600 μL/well stop solution to terminate the reaction. After pre-warming, dispense 760 μL/well cofactor solution to 96-well plate as reservoir according to plate map. Then add 98 μL/well to every plate by Apricot to start reaction. Incubate at 37° C., start timer 2, Add 600 μL/well stop solution (cold in 4° C., including 100 ng/mL Tolbutamide and Labetalol) to terminate the reaction. Samples are centrifuged at 4000 rpm for 20 min. While centrifuging, load 8× new 96-well plate with 300 μL HPLC water, then transfer 100 μL supernatant, mix with water for LC/MS/MS, transferred to Bioanalytical Services for LC-MS/MS analysis. Use equation of first order kinetics [NT]1/2 and CL: Equation of first order kinetics: [formula] [formula] [formula] [formula]

[2] = Plasma stability (human plasma); conditions: for Formation of EFdA at 30 min: human plasma; for half-life at 2 µM: human, pH 7.4
Procedure: The pooled frozen plasma was thawed in a water bath at 37° C. prior to experiment. Plasma was centrifuged at 4000 rpm for 5 min and the clots were removed if any. The pH will be adjusted to 7.4±0.1 if required.
Preparation of test compounds and positive control (propantheline bromide): 1 mM intermediate solution was prepared by diluting 10 μL of the stock solution with 90 μL MeOH; 1 mM intermediate of positive control Propantheline was prepared by diluting 10 μL of the stock solution with 90 μL ultrapure water. 100 μM dosing solution was prepared by diluting 20 μL of the intermediate solution (1 mM) with 180 μL MeOH. 98 μL of blank plasma was spiked with 2 μL of dosing solution (100 μM) to achieve 2 μM of the final concentration in duplicate and samples were incubated at 37° C. in a water bath. […] Centrifuged sample plates at 4,000 rpm for 10 min. An aliquot of supernatant (100 μL) was transferred from each well to another plates.

| half-life at 1 µM [1] [min] | Formation of EFdA at 30 min [1] | Formation of EFdA at 30 min [2] | half-life at 2 µM ([2]; pooled plasma) [min] | Compound | half-life at 2 µM ([2]; plasma) [min] |
| --- | --- | --- | --- | --- | --- |
| < 50 | Yes | Yes | 50 to 200 | C#C[C@]1(CO)O[C@@H](n2cnc3c(N)nc(F)nc32)C[C@@H]1OC(=O)OCCC12CC3CC(CC(C3)C1)C2 [Compound 8, ((2R,3S,5R)-5-(6-amino-2-fluoro-9H-purin-9-yl)-2-ethynyl-2-(hydroxymethyl)tetrahydrofuran-3-yl) 2-(1-adamantyl)ethyl carbonate] | – |
| < 50 | Yes | No | > 200 | C#C[C@]1(COC(=O)OCCC23CC4CC(CC(C4)C2)C3)O[C@@H](n2cnc3c(N)nc(F)nc32)C[C@@H]1OC(=O)OCCC12CC3CC(CC(C3)C1)C2 [Compound 9, ((2R,3S,5R)-2-((((2-(1-adamantyl)ethoxy)carbonyl)oxy)methyl)-5-(6-amino-2-fluoro-9H-purin-9-yl)-2-ethynyltetrahydrofuran-3-yl) 2-(1-adamantyl)ethyl carbonate] | – |
| < 50 | Yes | Yes | < 50 | C#C[C@]1(COC(=O)CCC23CC4CC(CC(C4)C2)C3)O[C@@H](n2cnc3c(N)nc(F)nc32)C[C@@H]1O [Compound 14, ((2R, 3S, 5R)-5-(6-amino-2-fluoro-9H-purin-9-yl)-2-ethynyl-3-hydroxy-tetrahydrofuran-2-yl)methyl 3-(1-adamantyl)propanoate] | – |
| < 50 | Yes | Yes | < 50 | C#C[C@]1(COC(=O)CCCC23CC4CC(CC(C4)C2)C3)O[C@@H](n2cnc3c(N)nc(F)nc32)C[C@@H]1O [Compound 15, ((2R, 3S, 5R)-5-(6-amino-2-fluoro-9H-purin-9-yl)-2-ethynyl-3-hydroxy-tetrahydrofuran-2-yl)methyl 4-(1-adamantyl)butanoate] | – |
| < 50 | Yes | Yes | > 200 | C#C[C@@]12COC(=O)CCCCCOC(=O)O[C@H]1C[C@H](n1cnc3c(N)nc(F)nc31)O2 [Compound 17, (11aR,13R,14aS)-13-(6-amino-2-fluoro-9H-purin-9-yl)-11a-ethynyloctahydro-11H-furo[3,2-d][1,3,7]trioxacyclotridecine-2,9(4H)-dione] | – |
| < 50 | Yes | No | < 50 | C#C[C@]1(COC(=O)OCCC23CC4CC(CC(C4)C2)C3)O[C@@H](n2cnc3c(N)nc(F)nc32)C[C@@H]1OC(=O)C(C)C [Compound 19, ((2R,3S,5R)-2-((((2-(1-adamantyl)ethoxy)carbonyl)oxy)methyl)-5-(6-amino-2-fluoro-9H-purin-9-yl)-2-ethynyltetrahydrofuran-3-yl) isobutyrate] | – |

More lines, now with the values behind:

| Compound | half-life at 1 µM [1] [min] | Formation of EFdA at 30 min [1] | Formation of EFdA at 30 min [2] | half-life at 2 µM ([2]; pooled plasma) [min] | half-life at 2 µM ([2]; plasma) [min] |
| --- | --- | --- | --- | --- | --- |
| C#C[C@@]12COC(=O)OCCCCCC(=O)OC1C[C@H](n1cnc3c(N)nc(F)nc31)O2 (stereo in doubt) [Compound 29, (1R,13R,15R)-15-(6-amino-2-fluoro-9H-purin-9-yl)-13-ethynyl-2,9,11,14-tetraoxabicyclo[11.3.0]hexadecane-3,10-dione] | < 50 | Yes | Yes | < 50 | – |
| C#C[C@@]12COC(=O)OCC3CCCCC3COC(=O)OC1C[C@H](n1cnc3c(N)nc(F)nc31)O2 (stereo in doubt) [Compound 30, (6R,8R,10R)-8-(6-amino-2-fluoro-9H-purin-9-yl)-10-ethynyl-3,5,9,12,14-pentaoxatricyclo[14.4.0.06,10]icosane-4,13-dione] | < 50 | Yes | No | 50 to 200 | – |
| C#C[C@]1(COC(=O)CC23CC4CC(CC(C4)C2)C3)O[C@@H](n2cnc3c(N)nc(F)nc32)C[C@@H]1O [Compound 1, ((2R,3S,5R)-5-(6-amino-2-fluoro-9H-purin-9-yl)-2-ethynyl-3-hydroxy-tetrahydrofuran-2-yl)methyl 2-(1-adamantyl) acetate] | < 50 | Yes | No | > 200 | – |
| C#C[C@]1(COC(=O)C23CC4CC(CC(C4)C2)C3)O[C@@H](n2cnc3c(N)nc(F)nc32)C[C@@H]1O [Compound 3, ((2R, 3S, 5R)-5-(6-amino-2-fluoro-9H-purin-9-yl)-2-ethynyl-3-hydroxy-tetrahydrofuran-2-yl)methyl adamantane-1-carboxylate] | < 50 | Yes | No | < 50 | – |
| C#C[C@]1(COC(=O)OC23CC4CC(CC(C4)C2)C3)O[C@@H](n2cnc3c(N)nc(F)nc32)C[C@@H]1O [Compound 4, ((2R, 3S, 5R)-5-(6-amino-2-fluoro-9H-purin-9-yl)-2-ethynyl-3-hydroxy-tetrahydrofuran-2-yl)methyl 1-adamantyl carbonate] | < 50 | Yes | Yes | > 200 | – |
| C#C[C@]1(COC(=O)OC23CC4CC(CC(C4)C2)C3)O[C@@H](n2cnc3c(N)nc(F)nc32)C[C@@H]1OC(=O)OC12CC3CC(CC(C3)C1)C2 [Compound 6, (((2R,3S,5R)-3-((((1-adamantyl)oxy)carbonyl)oxy)-5-(6-amino-2-fluoro-9H-purin-9-yl)-2-ethynyltetrahydrofuran-2-yl)methyl) 1-adamantyl carbonate] | < 50 | Yes | No | > 200 | – |
| C#C[C@]1(CO)O[C@@H](n2cnc3c(N)nc(F)nc32)C[C@@H]1OC(=O)OCCCC12CC3CC(CC(C3)C1)C2 [Compound 11, ((2R,3S,5R)-5-(6-amino-2-fluoro-9H-purin-9-yl)-2-ethynyl-2-(hydroxymethyl)tetrahydrofuran-3-yl) 3-(1-adamantyl)propyl carbonate] | < 50 | Yes | – | – | – |
| C#C[C@]1(CO)O[C@@H](n2cnc3c(N)nc(F)nc32)C[C@@H]1OC(=O)OCCCCC12CC3CC(CC(C3)C1)C2 [Compound 13, ((2R,3S,5R)-5-(6-amino-2-fluoro-9H-purin-9-yl)-2-ethynyl-2-(hydroxymethyl)tetrahydrofuran-3-yl) 4-(1-adamantyl)butyl carbonate] | < 50 | Yes | – | – | – |
| C#C[C@@]12COC(=O)OCCCOC(=O)O[C@H]1C[C@H](n1cnc3c(N)nc(F)nc31)O2 [Compound 16, (10aR,12R,13aS)-12-(6-amino-2-fluoro-9H-purin-9-yl)-10a-ethynylhexahydro-4H,10H-furo[3,2-d][1,3,7,9]tetraoxacyclododecine-2,8-dione] | – | – | Yes | – | 50 to 200 |
| C#C[C@]1(COC(=O)OCCC23CC4CC(CC(C4)C2)C3)O[C@@H](n2cnc3c(N)nc(F)nc32)C[C@@H]1OC(=O)OCC [Compound 18, ((2R,3S,5R)-2-((((2-(1-adamantyl)ethoxy)carbonyl)oxy)methyl)-5-(6-amino-2-fluoro-9H-purin-9-yl)-2-ethynyltetrahydrofuran-3-yl) ethyl carbonate] | < 50 | Yes | No | – | < 50 |
| C#C[C@]1(COC(=O)OCC23CC4CC(CC(C4)C2)C3)O[C@@H](n2cnc3c(N)nc(F)nc32)C[C@@H]1OC(=O)C(C)C [Compound 20, ((2R,3S,5R)-2-(((((1-adamantyl)methoxy)carbonyl)oxy)methyl)-5-(6-amino-2-fluoro-9H-purin-9-yl)-2-ethynyltetrahydrofuran-3-yl) isobutyrate] | < 50 | Yes | – | – | – |
| C#C[C@]1(COC(=O)OCCCC23CC4CC(CC(C4)C2)C3)O[C@@H](n2cnc3c(N)nc(F)nc32)C[C@@H]1OC(=O)C(C)C [Compound 21, ((2R,3S,5R)-2-((((3-(1-adamantyl)propoxy)carbonyl)oxy)methyl)-5-(6-amino-2-fluoro-9H-purin-9-yl)-2-ethynyltetrahydrofuran-3-yl) isobutyrate] | < 50 | Yes | Yes | 50 to 200 | – |
